Assay results published in patent publication US11066655B2, “RNA polymerase, methods of purification and methods of use” (President and Fellows of Harvard College, priority 2013, dated 2021).

B1: Syn5 RNAP: single subunit DNA-dependent RNA polymerase from marine cyanophage Syn5, amino acid sequence SEQ ID NO:23 (protein)
chain: MSFDLIARQLQRETEAAELARKRLQDARREANERSYASSNIESRKAIATFLDPIAQRIGERLFTLRRGTGAVDAAEVYKHLKNADHHHLALITMKTALDVLGKDPEPQIQQLTTAIGRNIQLELRLTYYAEENPELYKQASRFFHAGTGTRQKATVIKLKFNREGIEWDQWSRVTCHKVGQWLMLAMADVTGWIERATDRTSGGRKTKTRICYSREFLQHRDTILAAAEQLAFCQWPMLCPPIEWSNDHNGGYLSEQIRRVNPLIRKTGPLGTRKQGDIPLAMLNNLQGQAYKVNPEVLDIANHCYESNVTVGKFIRHAPLPVPPSPGEDCTEDQLTAYKRARREAEDFNAQISQKNWRTTEVMYVARKYADEASFWMPASFDYRGRVYFLNTALNPQGTDFDKALLYFAEEGPVNEWWLSFHVATTYGLDKETMVNRVQWARDNHELIDRIASDPVRHTEWHDADEPWCFLAACLEYKACVIDGTKQTSGLPIGIDATCSGLQHLAAMTRCGRTAALVNVTPTDKPADAYKTVAQASLKHLPKEQHEWITRKVTKRPVMCTPYGVTMSSARGYIRDQLVKDGHKEDLRSPGVLNGIVKAIFNEAIPEVIPGPVQVMAWLKRSAGQIIDRGDSTITWTTPSGFEVVQDLKKSKTYEVKTRIMGGARIKLQVGDGFTDEPDRDHHKSALAPNVVHSNDASLLHLTFAFWDKPFTVIHDCVLGRSCDMDQMGSDIRLHFAEMYKADVMQDWADQVGVELPVDLIKNTLDIDSVNQSLYFFS
modifications: Amino acid sequence of a cyanophage Syn5 RNAP

Columns and labels:
[1] = tested on: DNA templates S5P-tDNAR or T7P-tDNAR; assay: Run-off synthesis of small RNA (tRNA^Arg), analytical scale, denaturing gel; type: biochemical; settings: for N+1 product in tRNA^Arg synthesis: 37° C., 22, 67, 200 nM enzyme; for N+1 product in run-off products: all temperatures (16° C., RT, 37° C.) and KCl concentrations examined
Description: FIGS. 10A-10B depict a comparison of T7 and Syn5 RNA polymerase in run-off synthesis of small RNA. A) Effect of temperature and salt concentration on the RNA synthesis by T7 and Syn5 RNA polymerase. B) Similar as A) except that His-tagged T7 RNA polymerase was used.
(§1) FIGS. 11A-11B depict synthesis of tRNA^Arg by Syn5 and T7 RNA polymerase. A) Synthesis of tRNA^Arg at analytical scale by various amounts of Syn5 and T7 RNA polymerase. Using radioactively labeled CTP, the tRNA^Arg and N+1 product (as marked) produced by 22, 67, 200 nM Syn5 and T7 RNA polymerase at 37° C. are shown. […] The DNA encoding E. coli tRNA^ArgACG is directly downstream of a Syn5 or T7 promoter for the cognate RNA polymerase to synthesize run-off tRNA transcript. B) Synthesis of tRNA^Arg at preparative scale by Syn5 and T7 RNA polymerase. The sequencing gel is showing the analysis of the total RNA products by Syn5 and T7 RNAP at 37° C. in a 200 µl reaction. RNAs were purified by either ZYMO RNA clean kit or phenol/chloroform extraction followed by ethanol precipitation (P/C/E), as noted on top of the gel. The native tRNA^Arg (with modifications) overexpressed and purified from E. coli cells was used as a size marker. The two major bands in the total RNAs are tRNA^Arg and N+1 product as marked.
FIGS. 12A-12B depict synthesis of long run-off product and the incorporation of modified nucleotides by Syn5 and T7 RNA polymerase. A) On the linearized plasmid template as shown in the schematic, the production of RNA by either RNA polymerase (10 nM) was analyzed on agarose gel as lane 2. […] Lane 3 and 4 show the same RNA synthesis when CTP was replaced by 5mCTP and UTP by Ps-UTP, respectively. B) Incorporation of UTP or Ps-UTP into small RNA by 22, 67, and 200 nM Syn5 and T7 RNA polymerase as analyzed by denaturing TBE polyacrylamide gel. Full-length run-off product and the N+1 product are shown.
DNA templates for transcription assays were either plasmids or dsDNA fragments made of synthesized oligonucleotides. To test the processivity of Syn5 and T7 RNAP, a single Syn5 or T7 promoter plus 3 guanosine downstream of the promoter (Syn5 5′-ATTGGGCACCCGTAAGGG-3′ (SEQ ID NO:1) or T7 5′-[…]-3′) (SEQ ID NO:2) was inserted between the BamHI and XbaI sites of plasmid pUC19 to form pUC19-S5P or pUC19-T7P. The templates for run-off tRNA^Arg synthesis were formed by annealing of two complementary synthesized DNA oligos of which sequences are as following:
For the results shown in FIG. 10, reaction mixtures (10 μl) contained 40 mM Tris-HCl pH 8.0, 6 mM MgCl2, 2 mM spermidine, 10 mM DTT, 200 µm[…]P, GTP and UTP, 10 µM [[…]-^32P]CTP, 1.5 U/µl RNaseOUT™ recombinant ribonuclease inhibitor, 0.5 μM DNA templates S5P-tDNAR or T7P-tDNAR, 100 nM Syn5 or T7 RNAP, and various amount of KCl as noted in the figure. Reactions were carried out at various temperatures of 16° C., room temperature, or 37° C. for 30 min before adding of one unit of DNase I to each reaction mixture and an additional incubation of 15 min at 37° C. Reactions were then terminated by the addition of 4 µl of loading dye containing 95% formamide and 40 mM EDTA. Samples were then heated at 90° C. for 1 min and 4 µl sample each was loaded onto 15% TBE-Urea denaturing polyacrylamide gels. After electrophoresis, gels were dried and analyzed using a Fuji BAS 1000 Bioimaging Analyzer.
For the results shown in FIG. 11A, reaction mixtures (10 μl) containing 40 mM Tris-HCl pH 8.0, 6 mM MgCl2, 2 mM spermidine, 10 mM DTT, 200 µM[…]P, GTP and UTP, 10 µM [[…]-^32P]CTP, 1.5 U/µl RNaseOUT™ recombinant ribonuclease inhibitor, 0.5 μM DNA templates S5P-tDNAR or T7P-tDNAR, and various amount of Syn5 or T7 RNAP were incubated at 37° C. for 30 min before adding of one unit of DNase I to each reaction mixture and an additional incubation of 15 min at 37° C. Reactions were then terminated by the addition of 4 µl of loading dye containing 95% formamide and 40 mM EDTA. […]

[2] = tested on: DNA templates S5P-tDNAR or T7P-tDNAR; assay: Synthesis of tRNA^Arg at preparative scale, sequencing gel; type: biochemical; settings: 200 µl reaction, 37° C.
Procedure: as §1, with “RNAs were purified by either ZYMO RNA clean kit or phenol/chloroform extraction followed by ethanol precipitation (P/C/E), as noted on top of the gel. The native tRNA^Arg (with modifications) overexpressed and purified from E. coli cells was used as a size marker. The two major bands in the total RNAs are tRNA^Arg and N+1 product as marked.” left out
For the results shown in FIG. 11A, reaction mixtures (10 μl) containing 40 mM Tris-HCl pH 8.0, 6 mM MgCl2, 2 mM spermidine, 10 mM DTT, 200 µM[…]P, GTP and UTP, 10 µM [[…]-^32P]CTP, 1.5 U/µl RNaseOUT™ recombinant ribonuclease inhibitor, 0.5 μM DNA templates S5P-tDNAR or T7P-tDNAR, and various amount of Syn5 or T7 RNAP were incubated at 37° C. for 30 min before adding of one unit of DNase I to each reaction mixture and an additional incubation of 15 min at 37° C. […] After electrophoresis, gels were dried and analyzed using a Fuji BAS 1000 Bioimaging Analyzer. […] RNA quantification was based on OD260 measurement using NANOPHOTOMETER (IMPLEN). […]

Row | Molecule | run-off synthesis at high salt ([1]; 160 mM KCl) | N+1 product in tRNA^Arg synthesis [1] | N+1 product in run-off products [1] | products when UTP replaced by Ps-UTP ([1]; small RNA, radioactively labeled CTP) | N+1 products in total products [2] | run-off synthesis at high salt ([1]; 250 mM KCl)
1 | T7 RNAP: RNA polymerase encoded by bacteriophage T7, from New England Biolabs [reference compound] | little activity | more N+1 product than the desired product | abundant amounts of the N+1 product | produced predominantly N+1 products | more than 50% | 
2 | B1 |  | absence of N+1 product | did not contain detectable N+1 product band |  | negligible | produces significant amounts of product
